In PubChem BioAssay AID179 (DTP/NCI, 2004) one finds EC50, IC50 and outcome data, which are given here for 70 compounds.

Broadly, the pEC50 is the negative decadic logarithm of the EC50, by convention in mol/L. The pIC50 is −log10 of the IC50, conventionally taken in molar units.

pEC50, pIC50: −log10 of the molar value. Calls of active or inactive are those of the source.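 The calls were made as follows: active = compounds giving half or more protection of infected cells from virus-caused growth loss, again on retest; inactive = the rest.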 Where a SMILES comes first, the peptide text is derived from it. Bridges are numbered along the chain shown (N, C = ends). [ ]: non-standard residue; d: D form. The star is where a group is joined. Phe(4-NO2) = N[CH](Cc1ccc([N+](=O)[O-])cc1)C(=O)O; Cbz = O=C(OCc1ccccc1)*; Boc = CC(C)(C)OC(=O)*; Aib = CC(C)(N)C(=O)O; OBn = c1ccc(CO*)cc1; βAla = NCCC(=O)O

The assay deals with CEM cells HIV-1 protection, formazan growth assay. Description: NCI AIDS Antiviral Assay. Conditions: for pIC50: measured here: growth of uninfected CEM cells. In a few lines:
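Category rules: moderately active means at least 50% protection on retest, and confirmed active means 100% protection reproducibly. The underlying data came from a formazan growth assay in HIV-1-infected CEM cells.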

With `CNC(=O)CCC(NC(=O)OC(C)(C)C)C(=O)NC(Cc1ccc([N+](=O)[O-])cc1)C(=O)NCC(=O)NC` (stereo unspecified) (Boc-Glu(NHMe)-[Phe(4-NO2)]-Gly-NHMe; configuration not given here), the pEC50 was under 3.70 and the pIC50 was under 3.70.

Turning to `Cc1ccc2c(c1)[nH]c(=S)n2C=C1C(=O)CC(C)(C)CC1=O`, the pEC50 was under 3.70 and the pIC50 is under 3.70.

Regarding `c1ccc2c(CCNC3=NCCO3)cccc2c1`, the outcome was inactive.

Regarding `CC1Cn2c(nnc2-c2ccccc2O)S1` (stereo unspecified), the outcome was inactive.

Consider `O=[N+]([O-])c1cccc(C2=NOC3C4CCC(C4)C23)c1` (stereo unspecified), for which the pEC50 was 6.87 and the pIC50 is 4.18.

For the compound `COc1ccc(CN2COc3c(ccc4cccnc34)C2)cc1`, the pEC50 is under 3.70 and the pIC50 was 6.12.

As for `COc1c2c(cc3oc(C)cc(=O)c13)OC(=N)C(C(N)=O)C2CC(=O)c1ccc(N)cc1` (stereo unspecified), the negative-log EC50 (pEC50) is 4.34 and the pIC50 is under 4.00.

For the compound `COc1cc(NCC(C#N)C#N)ccc1N=Nc1ccc(Cl)cc1`, the pEC50 is under 4.67 and the pIC50 is under 4.67.

Consider `COc1ccc(/C=C(\Cl)c2ccc(OC)cc2)cc1`, for which the pEC50 is under 3.70 and the negative logarithm of the IC50 (pIC50) is under 3.70.

For the compound `N#Cc1ccc(/C=C(/C(=O)c2ccccc2)c2ccccc2)cc1`, the pEC50 is under 4.77 and the pIC50 was 5.02.

Regarding `COc1cc2c(c([N+](=O)[O-])c1)NC(=O)C(c1ccccc1)S2` (stereo unspecified), the pEC50 is under 3.70 and the pIC50 was 3.96.

Take `[O-]c1on[n+]2c1c(Nc1ccc(Cl)cc1)nc1ccccc12`: the pEC50 was under 3.94 and the pIC50 was under 3.94.

Take `CC1(C)S(=O)(=O)OCCOS1(=O)=O`: the pEC50 is under 3.70 and the pIC50 is 3.96.

Consider `CC1(C)O[C@@H]([C@@H](O)[C@H](O)C2SCCCS2)[C@@H](CO)O1`, for which the pEC50 was under 3.70 and the pIC50 is under 3.70.

On to `Cc1cccc(CC(Cc2c(C)cccc2C(=O)O)C(=O)O)c1` (stereo unspecified), for which the pEC50 is under 3.70 and the pIC50 was under 3.70.

As to `Cc1cc(OCC(O)CO)ccc1Cl` (stereo unspecified), the pEC50 was under 2.94 and the pIC50 is 3.26.

Regarding `C=Cc1ccccc1C1(O)C=CC(OC)(OC)C=C1`, the pEC50 was under 3.70 and the pIC50 was 5.10.

Consider `CCN(CC)CC(=O)Nc1cc(Cl)ccc1OC`, for which the pEC50 is under 3.70 and the pIC50 is 3.75.

With `CC1=C/C(=N\NC(N)=S)C(C(O)(C(F)(F)F)C(F)(F)F)C(C)(C)C1` (stereo unspecified), the pEC50 is under 3.70 and the pIC50 was 4.05.

On to `CCC1C(NC(=O)OC)C(=O)N1[C@@H](C)c1ccccc1` (stereo partly specified), for which the pEC50 is under 3.70 and the pIC50 is under 3.70.

Take `CCc1cccc(C)c1NC(=S)NC(=O)c1ccccc1C(=O)NC(=S)Nc1c(C)cccc1CC`: the pEC50 is under 4.16 and the negative-log IC50 (pIC50) was under 4.16.

`NC(=O)C1=CC2C3C=CC2(O)C(=O)OC3O1` (stereo unspecified): the pEC50 is under 2.95 and the pIC50 was 5.93.

Take `O=C(CCc1nnc2s/c(=C\c3ccc([N+](=O)[O-])cc3)c(=O)n12)Nc1ccc(Cl)c(Cl)c1`: the pEC50 was under 4.16 and the negative logarithm of the IC50 (pIC50) was 4.41.

As to `CS(=O)(=O)OCCn1cnc2nc(NC(=O)c3ccccc3)[nH]c(=O)c21`, the pEC50 was under 3.74 and the pIC50 was under 3.74.

Take `CC(C)OC(=O)c1ccc(NCc2cc(O)ccc2O)cc1`: the pEC50 is under 3.70 and the pIC50 was 5.66.

On to `CN(C)c1ccc2nc3c(cc(Nc4cccc5cccc(Nc6cc7ccccc7c7nc8ccc(N(C)C)cc8[o+]c67)c45)c4ccccc43)[o+]c2c1`, for which the pEC50 was under 4.00 and the pIC50 was 4.82.

Consider `O=C1c2ccccc2C(=O)C2C1C1C(=O)c3ccccc3C(=O)C21` (stereo unspecified), for which the outcome was inactive.

With `N#CC(C#N)=Cc1ccc(SCc2ccc(Cl)cc2)cc1`, the pEC50 was under 3.70 and the pIC50 is 3.87.

For `CC(=O)C(=C(I)I)c1ccccc1`, the outcome was inactive.

For the compound `COC(=O)c1c2c(cc3c1CC1(Cc4cc5c(cc4C1)CCCC5)C3)CCCC2`, the pEC50 is under 3.70 and the pIC50 was under 3.70.

Regarding `COC1=CCC=C(C[C@@H]2NCCc3cc(OC)c(OC)cc32)C1`, the pEC50 was under 3.70 and the pIC50 is under 3.70.

On to `Cc1ccc(O)c(C(c2ccc(C(c3cc(C)ccc3O)c3cc(C)ccc3O)cc2)c2cc(C)ccc2O)c1`, for which the pEC50 was under 4.70 and the pIC50 is 5.51.

In the case of `CC1(C)N([O-])[N+](=O)C1(C)Br` (stereo unspecified), the pEC50 was under 3.70 and the pIC50 was under 3.70.

With `COc1cc2c(cc1OC)[C@H](C(=O)O)[C@@H](c1ccc(OC(C)C)c(OC)c1)N(C)C2=O`, the pEC50 was under 3.70 and the pIC50 is under 3.70.

With `CC1(C)OC2OC(C3COS(=O)O3)C(Cl)C2O1` (stereo unspecified), the pEC50 was under 3.06 and the pIC50 is 3.31.

As for `CC(C)[Si](OC1=C(c2ccccc2)C(NC(=O)/C=C/c2ccc([N+](=O)[O-])cc2)CCC1)(C(C)C)C(C)C` (stereo unspecified), the pEC50 was under 3.70 and the pIC50 is under 3.70.

As for `CC1=C(C)C(=O)c2c(cc3ccc4ccccc4n23)C1=O`, the outcome was inactive.

`N#C/C(=C\n1c(=S)[nH]c2ccc([N+](=O)[O-])cc21)C(=O)c1ccc2ccccc2c1`: the pEC50 was under 3.70 and the pIC50 is under 3.70.

In the case of `COc1ccc(NC(=O)C(=O)/C=C(\O)c2ccccc2)cc1`, the pEC50 was under 3.70 and the pIC50 is 5.03.

For the compound `Cn1cc(NC(=O)Nc2cc(C(=O)Nc3cc(C(=O)Nc4cc(C(=O)Nc5cc(P(=O)(O)O)c6cccc(P(=O)(O)O)c6c5)n(C)c4)n(C)c3)n(C)c2)cc1C(=O)Nc1cc(C(=O)Nc2cc(C(=O)Nc3cc(P(=O)(O)O)c4cccc(P(=O)(O)O)c4c3)n(C)c2)n(C)c1`, the pEC50 is 6.54 and the pIC50 was 4.12.

As for `CC1(C)NC(=O)C(NC(=O)C(CC(=O)OCc2ccccc2)NC(=O)OCc2ccccc2)CCCCNC(=O)CCNC1=O` (stereo unspecified) (Cbz-D(OBn)K[Aib][βAla]; lactam 2-C; configuration not given here), the pEC50 was under 3.70 and the pIC50 is under 3.70.

Take `Clc1ccc(/C=N/Nc2nnc3c(n2)[nH]c2ccccc23)cc1`: the pEC50 was under 3.70 and the pIC50 was under 3.70.

Consider `CCCC(CCC)C(=O)[O-].CCCC(CCC)C(=O)[O-].CCCC(CCC)C(=O)[O-].CCCC(CCC)C(=O)[O-].[Cu+2].[Cu+2]`, for which the pEC50 was under 4.30 and the pIC50 is 5.13.

Consider `O=C(c1ccccc1)N1C/C(=N\Nc2ccc(Cl)cc2)c2c([nH]c3ccccc23)C1`, for which the pEC50 is under 5.04 and the pIC50 is under 5.04.

For the compound `O=C(c1ccccc1)c1cc2c([nH]c1=O)CCCCCC2`, the pEC50 was under 3.70 and the pIC50 was under 3.70.

With `CCOC(=O)c1cc2c(nc1NCc1ccc(OC)c(OC)c1)/C(=C/c1ccccc1)CCCC2`, the pEC50 is under 3.70 and the pIC50 was 4.99.

Regarding `CCCCCCC(=O)C/C(CCC(=O)N(Cc1ccccc1)Cc1ccccc1)=N\NC(N)=O`, the pEC50 is under 4.42 and the pIC50 was under 4.42.

On to `N#C/C(=C\c1ccccc1)c1ccc(Cl)cc1`, for which the pEC50 is under 3.70 and the pIC50 was 4.24.

On to `O=C(NCCCn1ccnc1[N+](=O)[O-])C(=O)NCCCn1ccnc1[N+](=O)[O-]`, for which the pEC50 was under 3.70 and the pIC50 is under 3.70.

Regarding `CCCCc1ccc(Nc2cc(=O)n(C)c(=O)[nH]2)cc1`, the pEC50 is under 3.70 and the pIC50 is under 3.70.

Turning to `CC(C)(C)OC(=O)NCC(O)CNC(=O)OC(C)(C)C`, the pEC50 is under 3.06 and the pIC50 is under 3.06.

For the compound `COc1cc(C(O)C(O)c2cc(CN3CCOCC3)c(O)c(OC)c2)cc(CN2CCOCC2)c1O` (stereo unspecified), the pEC50 was under 3.70 and the pIC50 is under 3.70.

`Cc1cc(CO)c(O)c(C(=O)CC2CC(=O)NC(=O)C2)c1`: the pEC50 was under 3.70 and the pIC50 is 4.24.

Turning to `Cl[Si]1(Cl)Oc2ccccc2O[Si](Cl)(Cl)Oc2ccccc2O1`, the pEC50 was under 4.90 and the pIC50 is under 4.90.

For `CCS(=O)(=O)CCn1c(=O)c2c(ncn2C)n(C)c1=O`, the pEC50 is under 3.70 and the pIC50 was under 3.70.

As to `CC1CC(c2ccc([N+](=O)[O-])cc2)=Nc2ccccc2S1` (stereo unspecified), the pEC50 is under 5.04 and the negative logarithm of the IC50 (pIC50) was under 5.04.

For the compound `COC1=CC=C2Nc3nc(N)[nH]c(=O)c3SC2N1` (stereo unspecified), the pEC50 was under 3.75 and the pIC50 is under 3.75.

Regarding `CC[C@@]1(C[C@H]2C[C@@]3(C(=O)OC)c4[nH]c5ccccc5c4CCN3C2=O)COC2(CCCCC2)O1`, the pEC50 was under 3.70 and the pIC50 is 4.45.

`N.N.N.N.O=C([O-])C(=O)O.O=C([O-])C(=O)[O-].[Co+3]`: the outcome was inactive.

Regarding `CN(c1ccccc1)C(c1ccccc1)C(O)c1ccccc1` (stereo unspecified), the result was inactive.

In the case of `CN(C)CCCCN1c2ccccc2Sc2ccc(C(=O)c3ccccc3)cc21`, the pEC50 was under 3.70 and the pIC50 is 5.18.

On to `O=C1C=C(Nc2ccccc2C(=O)c2ccccc2)c2ccccc2C1=O`, for which the pEC50 was under 5.53 and the pIC50 is under 5.53.

As to `CCCCCCC1CC(=O)C1(Cl)Cl` (stereo unspecified), the outcome was inactive.

For the compound `O=c1[nH]c(=O)n([C@@H]2C[C@H](CO)[C@H](O)C2)cc1/C=C/Br`, the pEC50 was under 3.12 and the pIC50 is 3.56.

Take `COC(=O)C1CC(C=[N+](C)C)=C(SC)N1` (stereo unspecified): the pEC50 is under 3.70 and the negative-log IC50 (pIC50) was under 3.70.

As to `c1ccc2c(c1)OCCOCCOc1ccccc1OCCO2`, the pEC50 was under 3.53 and the pIC50 was 4.13.

As to `C#CCOCn1cnc2ncnc(N)c21`, the pEC50 was under 2.91 and the negative-log IC50 (pIC50) is under 2.91.

Turning to `CCCCCCCCCCCCC(=O)CCCCC(=O)O`, the result was inactive.

Consider `CCn1c(O)c(C=Nc2ccccc2)s/c1=N/Nc1nc(-c2ccc(O)c(O)c2)cs1`, for which the pEC50 is under 3.70 and the pIC50 was 4.85.

For the compound `CCOc1cc2c(cc1O)/C(=N\OC)C[C@@H]1[C@@H]2CC[C@]2(C)[C@@H](O)CC[C@@H]12`, the pEC50 is under 3.70 and the pIC50 was 7.14.
